Experimental data taken from patent US12247029B2, “Heterocyclic compounds as class II phosphoinositide 3-kinase inhibitors” (Forschungsverbund Berlin e.V., priority 2018, dated 2025).

The compounds below were run against PI3KC2α Δ1-298 (Homo sapiens (Human), UniProt O00443) (assay: ADP-Glo kinase assay with purified PI3KC2α Δ1-298). Details: not given.
Format: biochemical
Method: Previous studies have shown that PI3KC2α can utilize phosphatidylinositol (PI) or phosphatidylinositol 4-phosphate [PI(4)P] to produce PI(3)P or PI(3,4)P2 respectively but with a preference for PI(3,4)P2 production. To verify that purified PI3KC2α Δ1-298 is active, a radioactive kinase assay was performed with PI as a substrate and different amounts of purified PI3KC2α Δ1-298. The lipid product [PI(3)P] was separated on TLC plates, and the PI(3)P signal was correlated with the amount of PI3KC2α used (FIG. 4A). […] After having confirmed the activity of purified PI3KC2α Δ1-298, an assay suitable for high content screens in multiwell format (ADP-Glo™ assay) was established. The ADP-Glo™ assay has been used for universal detection of ATP hydrolysis. This assay measures ATP hydrolysis occurring during a kinase reaction. For detection, generated ADP is re-converted into ATP with the […] and converted into light by the Ultra-Glo™ Luciferase reagent. The luminescent signal reports kinase activity (FIG. 4B).
The ADP-Glo™ assay was first used to determine the linear correlation range of signal with different amounts of kinase, and then to assess the Kms for ATP and for PI. […] Further optimization of this assay allowed us to carry out medium-to-high throughput screening using low amounts of purified enzyme (at fixed concentrations of: ATP=40 μM, PI=200 μM, PI3KC2α A1−298=10 ng/μl).
Primary screens were performed using the ADP-Glo™ assay in a 384-well format. 37, 224 small molecules were screened for their ability to inhibit kinase activity of PI3KC2α Δ1-298. The concentration of each compound used in the primary screens was 10 μM. Kinase incubations with ATP but without PI were used as negative control samples. This primary screen turned out to be robust with an average z′ factor of 0.57, and therefore judged as successful.
ADP-Glo kinase assay was performed as described by the manufacturer's protocol. Briefly, the kinase assay was performed with a […] of liver PI/ATP/purified PI3KC2α for 20 min in kinase reaction buffer described above. To deplete the remaining ATP from the reaction, 5 μl of […] was added to the kinase reaction mixture and incubated for 40 min. For detection, the generated ADP is re-converted into ATP and converted into light by the Ultra-Glo™ luciferase in kinase detection reagent. The luminescent signal positively correlates with kinase activity. All reactions are performed in Corning® 384 well-white plates.

Chain of PI3KC2α Δ1-298 (O00443 299-1686): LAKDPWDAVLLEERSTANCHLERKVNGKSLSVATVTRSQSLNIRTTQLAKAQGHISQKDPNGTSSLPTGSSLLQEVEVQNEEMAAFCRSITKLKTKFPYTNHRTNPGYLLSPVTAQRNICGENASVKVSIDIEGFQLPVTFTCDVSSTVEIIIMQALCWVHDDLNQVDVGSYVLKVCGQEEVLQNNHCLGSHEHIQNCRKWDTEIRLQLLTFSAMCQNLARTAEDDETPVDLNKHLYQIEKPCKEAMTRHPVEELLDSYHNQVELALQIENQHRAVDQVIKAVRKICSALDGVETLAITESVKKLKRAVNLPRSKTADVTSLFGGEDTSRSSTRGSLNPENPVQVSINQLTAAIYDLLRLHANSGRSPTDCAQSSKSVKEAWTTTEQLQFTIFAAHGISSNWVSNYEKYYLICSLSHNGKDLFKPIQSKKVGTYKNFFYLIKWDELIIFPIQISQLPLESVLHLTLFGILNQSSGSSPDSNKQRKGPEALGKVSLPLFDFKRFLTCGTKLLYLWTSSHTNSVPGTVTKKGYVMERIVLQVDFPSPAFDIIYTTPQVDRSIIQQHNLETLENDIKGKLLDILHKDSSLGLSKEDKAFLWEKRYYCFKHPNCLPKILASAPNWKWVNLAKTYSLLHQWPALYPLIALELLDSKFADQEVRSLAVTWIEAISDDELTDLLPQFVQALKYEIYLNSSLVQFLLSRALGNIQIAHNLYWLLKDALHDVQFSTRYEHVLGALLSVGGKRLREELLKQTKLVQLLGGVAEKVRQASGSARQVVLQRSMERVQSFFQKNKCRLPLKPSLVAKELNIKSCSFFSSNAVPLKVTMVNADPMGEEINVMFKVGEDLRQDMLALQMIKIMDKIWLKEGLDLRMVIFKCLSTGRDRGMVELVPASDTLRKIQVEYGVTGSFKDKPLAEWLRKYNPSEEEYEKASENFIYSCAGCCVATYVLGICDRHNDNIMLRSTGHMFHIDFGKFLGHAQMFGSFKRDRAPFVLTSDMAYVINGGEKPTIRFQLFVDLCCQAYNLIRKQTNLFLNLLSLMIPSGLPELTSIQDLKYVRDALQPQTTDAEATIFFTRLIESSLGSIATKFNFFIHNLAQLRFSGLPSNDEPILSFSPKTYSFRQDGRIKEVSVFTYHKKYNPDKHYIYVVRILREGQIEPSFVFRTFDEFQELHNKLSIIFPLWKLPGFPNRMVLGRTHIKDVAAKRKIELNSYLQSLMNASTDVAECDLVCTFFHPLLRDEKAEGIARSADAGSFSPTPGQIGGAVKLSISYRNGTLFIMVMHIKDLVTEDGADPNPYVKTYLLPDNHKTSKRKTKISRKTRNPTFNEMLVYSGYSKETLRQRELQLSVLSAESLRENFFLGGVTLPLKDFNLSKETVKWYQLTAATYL

SMILES	PI3KC2α inhibitory activity (in words, SAR)
O=C(CSc1nc2nccnc2c(=O)n1CCc1cccc(F)c1)Nc1nc(-c2ccc(F)cc2)cs1 [Example Compound 6, 2-((3-(3-Fluorophenethyl)-4-oxo-3,4-dihydropteridin-2-yl)thio)-N-(4-(4-fluorophenyl)thiazol-2-yl)acetamide]	functional compounds
O=C(CSc1nc2nccnc2c(=O)n1CCc1ccccc1)Nc1nc(-c2ccccc2)cs1 [Example Compound 10, 2-((4-Oxo-3-phenethyl-3,4-dihydropteridin-2-yl)thio)-N-(4-phenylthiazol-2-yl)acetamide]	functional compounds
CC(Sc1nc2nccnc2c(=O)n1CCc1cccc(F)c1)C(=O)Nc1nccs1 (stereo not shown) [Example Compound 16, 2-((3-(3-Fluorophenethyl)-4-oxo-3,4-dihydropteridin-2-yl)thio)-N-(thiazol-2-yl)propanamide]	did not disrupt the activity
O=C(CSc1nc2nccnc2c(=O)n1CCc1ccccc1)Nc1ncc(Br)s1 [Example Compound 29, N-(5-Bromothiazol-2-yl)-2-((4-oxo-3-phenethyl-3,4-dihydropteridin-2-yl)thio)acetamide]	functional compounds

Same assay, conditions: read-out: IC50 (PI3KC2α; ADP-Glo™ assay)

SMILES	IC50 [nM]
O=c1c2nccnc2nc(SCc2nc3ccccc3[nH]2)n1[C@@H]1C[C@H]1c1ccccc1 (relative stereo) [Example Compound 99, trans-2-(((1H-Benzo[d]imidazol-2-yl)methyl)thio)-3-(2-phenylcyclopropyl)pteridin-4(3H)-one]	1800
O=C(CSc1nc2nccnc2c(=O)n1CCc1ccccc1)Nc1nc(-c2cccc(O)c2)cs1 [Example Compound 1, N-(4-(3-Hydroxyphenyl)thiazol-2-yl)-2-((4-oxo-3-phenethyl-3,4-dihydropteridin-2-yl)thio)acetamide]	120
CS(=O)(=O)Nc1ccc(-c2csc(NC(=O)CSc3nc4nccnc4c(=O)n3CCc3ccccc3)n2)cc1 [Example Compound 2, N-(4-(4-(Methylsulfonamido)phenyl)thiazol-2-yl)-2-((4-oxo-3-phenethyl-3,4-dihydropteridin-2-yl)thio)acetamide]	1700
O=C(CSc1nc2nccnc2c(=O)n1CCc1cccc(F)c1)Nc1ncco1 [Example Compound 3, 2-((3-(3-Fluorophenethyl)-4-oxo-3,4-dihydropteridin-2-yl)thio)-N-(oxazol-2-yl)acetamide]	2100
O=C(CSc1nc2nccnc2c(=O)n1CCc1cccc(F)c1)Nc1nccs1 [Example Compound 4, 2-((3-(3-Fluorophenethyl)-4-oxo-3,4-dihydropteridin-2-yl)thio)-N-(thiazol-2-yl)acetamide]	840
Cc1nnc(NC(=O)CSc2nc3nccnc3c(=O)n2CCc2cccc(F)c2)s1 [Example Compound 5, 2-((3-(3-Fluorophenethyl)-4-oxo-3,4-dihydropteridin-2-yl)thio)-N-(5-methyl-1,3,4-thiadiazol-2-yl)acetamide]	6300
O=C(CSc1nc2nccnc2c(=O)n1CCc1cccc(F)c1)Nc1nc(-c2ccc(F)cc2)cs1 [Example Compound 6, 2-((3-(3-Fluorophenethyl)-4-oxo-3,4-dihydropteridin-2-yl)thio)-N-(4-(4-fluorophenyl)thiazol-2-yl)acetamide]	610
O=C(CSc1nc2nccnc2c(=O)n1CCc1cccc(F)c1)NC1CC1 [Example Compound 7, N-Cyclopropyl-2-((3-(3-fluorophenethyl)-4-oxo-3,4-dihydropteridin-2-yl)thio)acetamide]	7100
O=C(CSc1nc2nccnc2c(=O)n1CCc1cccs1)Nc1nccs1 [Example Compound 8, 2-((4-Oxo-3-(2-(thiophen-2-yl)ethyl)-3,4-dihydropteridin-2-yl)thio)-N-(thiazol-2-yl)acetamide]	1100
O=C(CSc1nc2nccnc2c(=O)n1CCc1cccc(C(F)(F)F)c1)Nc1nccs1 [Example Compound 9, 2-((4-Oxo-3-(3-(trifluoromethyl)phenethyl)-3,4-dihydropteridin-2-yl)thio)-N-(thiazol-2-yl)acetamide]	1500
O=C(CSc1nc2nccnc2c(=O)n1CCc1ccccc1)Nc1nc(-c2ccccc2)cs1 [Example Compound 10, 2-((4-Oxo-3-phenethyl-3,4-dihydropteridin-2-yl)thio)-N-(4-phenylthiazol-2-yl)acetamide]	1260
CS(=O)(=O)Nc1cccc(-c2csc(NC(=O)CSc3nc4nccnc4c(=O)n3CCc3ccccc3)n2)c1 [Example Compound 12, N-(4-(3-(Methylsulfonamido)phenyl)thiazol-2-yl)-2-((4-oxo-3-phenethyl-3,4-dihydropteridin-2-yl)thio)acetamide]	130
O=C(CSc1nc2cccnc2c(=O)n1CCc1ccccc1)Nc1nccs1 [Example Compound 13, 2-((4-Oxo-3-phenethyl-3,4-dihydropyrido[3,2-d]pyrimidin-2-yl)thio)-N-(thiazol-2-yl)acetamide]	13000
O=C(CSc1nc2nccnc2c(=O)n1CCc1ccccc1)Nc1ncco1 [Example Compound 14, N-(Oxazol-2-yl)-2-((4-oxo-3-phenethyl-3,4-dihydropteridin-2-yl)thio)acetamide]	2800
O=C(CSc1nc2nccnc2c(=O)n1CCc1ccccc1)Nc1ccccc1F [Example Compound 15, N-(2-Fluorophenyl)-2-((4-oxo-3-phenethyl-3,4-dihydropteridin-2-yl)thio)acetamide]	6000
CC(Sc1nc2nccnc2c(=O)n1CCc1cccc(F)c1)C(=O)Nc1nccs1 (stereo not shown) [Example Compound 16, 2-((3-(3-Fluorophenethyl)-4-oxo-3,4-dihydropteridin-2-yl)thio)-N-(thiazol-2-yl)propanamide]	5200
O=C(CSc1nc2nccnc2c(=O)n1-c1cccc(-c2ccccc2)c1)Nc1nccs1 [Example Compound 17, 2-((3-([1,1′-Biphenyl]-3-yl)-4-oxo-3,4-dihydropteridin-2-yl)thio)-N-(thiazol-2-yl)acetamide]	9000
O=C(CSc1nc2nccnc2c(=O)n1CC(F)(F)c1ccccc1)Nc1nccs1 [Example Compound 18, 2-((3-(2,2-Difluoro-2-phenylethyl)-4-oxo-3,4-dihydropteridin-2-yl)thio)-N-(thiazol-2-yl)acetamide]	2300
O=C(CSc1nc2nccnc2c(=O)n1C1CCc2ccccc21)Nc1nccs1 (stereo not shown) [Example Compound 19, 2-((3-(2,3-Dihydro-1H-inden-1-yl)-4-oxo-3,4-dihydropteridin-2-yl)thio)-N-(thiazol-2-yl)acetamide]	1600
O=C(CSc1nc2nccnc2c(=O)n1CCc1ccccc1)Nc1ncccn1 [Example Compound 20, 2-((4-Oxo-3-phenethyl-3,4-dihydropteridin-2-yl)thio)-N-(pyrimidin-2-yl)acetamide]	2000
O=C(CSc1nc2nccnc2c(=O)n1C1CC1c1ccccc1)Nc1nccs1 (stereo not shown) [Example Compound 21, 2-((4-Oxo-3-(2-phenylcyclopropyl)-3,4-dihydropteridin-2-yl)thio)-N-(thiazol-2-yl)acetamide]	12000
O=C(CSc1nc2nccnc2c(=O)n1CCc1ccccc1)Nc1ccccc1 [Example Compound 22, 2-((4-Oxo-3-phenethyl-3,4-dihydropteridin-2-yl)thio)-N-phenylacetamide]	3300
O=C(CSc1nc2nccnc2c(=O)n1CCc1ccccc1)Nc1nc(-c2ccsc2)cs1 [Example Compound 23, 2-((4-Oxo-3-phenethyl-3,4-dihydropteridin-2-yl)thio)-N-(4-(thiophen-3-yl)thiazol-2-yl)acetamide]	760
COC(=O)Cc1csc(NC(=O)CSc2nc3nccnc3c(=O)n2CCc2ccccc2)n1 [Example Compound 24, Methyl 2-(2-(2-((4-oxo-3-phenethyl-3,4-dihydropteridin-2-yl)thio)acetamido)thiazol-4-yl)acetate]	2200
O=C(CSc1nc2nccnc2c(=O)n1CCc1ccccc1)Nc1nc(C(=O)N2CCOCC2)cs1 [Example Compound 25, N-(4-(Morpholine-4-carbonyl)thiazol-2-yl)-2-((4-oxo-3-phenethyl-3,4-dihydropteridin-2-yl)thio)acetamide]	3500
O=C(CSc1nc2nccnc2c(=O)n1CCc1ccccc1)Nc1nc(-c2cccc(F)c2)cs1 [Example Compound 26, N-(4-(3-Fluorophenyl)thiazol-2-yl)-2-((4-oxo-3-phenethyl-3,4-dihydropteridin-2-yl)thio)acetamide]	1500
O=C(CSc1nc2nccnc2c(=O)n1CCc1ccccc1)Nc1cc(-c2ccccc2)cs1 [Example Compound 27, 2-((4-Oxo-3-phenethyl-3,4-dihydropteridin-2-yl)thio)-N-(4-phenylthiophen-2-yl)acetamide]	17200
N#Cc1ccc(NC(=O)CSc2nc3nccnc3c(=O)n2CCc2ccccc2)nc1 [Example Compound 28, N-(5-Cyanopyridin-2-yl)-2-((4-oxo-3-phenethyl-3,4-dihydropteridin-2-yl)thio)acetamide]	7600
O=C(CSc1nc2nccnc2c(=O)n1CCc1ccccc1)Nc1ncc(Br)s1 [Example Compound 29, N-(5-Bromothiazol-2-yl)-2-((4-oxo-3-phenethyl-3,4-dihydropteridin-2-yl)thio)acetamide]	6600
Cc1ccc(-c2csc(NC(=O)CSc3nc4nccnc4c(=O)n3CCc3ccccc3)n2)s1 [Example Compound 30, N-(4-(5-Methylthiophen-2-yl)thiazol-2-yl)-2-((4-oxo-3-phenethyl-3,4-dihydropteridin-2-yl)thio)acetamide]	5800
